# From patent publication US20240408145A1, “Gene Therapy” (Ospedale San Raffaele S.r.l., priority 2021, published 2024)
# Entries after “also recorded” stand apart in the source; their conditions may differ.
# Columns and labels:
# human CD34+ HSPCs [1] = experiment: HDR gene editing efficiency in HSPCs (ddPCR, GFP flow cytometry); assay type: cell-based
# human CD34+ HSPCs [2] = experiment: Colony-forming unit cell (CFU-C) assay; assay type: cell-based
# [3] = test system: BM-derived human CD34+ cells; experiment: CFU-C assay of CD34+ cells retrieved from bone marrow of primary recipients; assay type: cell-based; details: 15-18 weeks, inhibitor at time of ex vivo GE vs standard protocol
# edited human CD34+ HSPCs = experiment: CD34+ HSPC xenotransplantation in NSG mice; assay type: in vivo
# CDKN1A (p21) = experiment: p21 expression in edited HSPCs (qPCR); assay type: cell-based, human; details: CB HSPCs, HS/AAV6 ± Anakinra, 24 and 96 h
# Description: For gene expression analyses, total RNA was extracted using either miRNeasy Micro Kit (QIAGEN) according to the manufacturer's instructions and DNase treatment was performed using RNase-free DNase Set (QIAGEN). cDNA was synthetized with iScript cDNA Synthesis Kit (Bio-Rad). cDNA was then pre-amplified using TaqMan PreAmp Master Mix (ThermoFisher) and used for q-PCR in a Viia7 Real-time PCR thermal cycler using both Fast SYBR Green Master Mix (Thermofisher), after standard curve method optimization to reach the 100% primer efficiency for each couple of primers listed in 1. The relative expression of each target gene was first normalized to GUSB housekeeping genes expression and then represented as 2^-DCt for each sample or as fold changes (2^-DDCt) relative to the indicated control conditions.
# [4] = test system: HDR-edited human HSPC clones; experiment: BAR-Seq clonal tracking of HDR-edited HSPCs; assay type: in vivo, NSG mice; details: end of experiment; inhibitor at time of GE vs standard gene edited cells
# Description: PCR amplicons for individual samples were generated by nested PCR using primers listed in Ferrari, S. et al., 2020, Nat Biotech 38(11):1298-1308 and starting from >50-100 ng of purified gDNA. The first PCR step was performed with GoTaq G2 DNA Polymerase (Promega) according to the manufacturer's instructions using the following amplification protocol: 95° C. for 5 min, (95° C. for 0.5 min, 60° C. for 0.5 min, 72° C. for 0.5 min)×20 cycles, 72° C. for 5 min. Forward primer was designed to bind donor template upstream the BAR sequence, while the reverse primer annealed outside the homology arm, thus amplifying 328 bp of the on-target integrated cassette. For targeted deep sequencing of the plasmid and AAV libraries, the reverse primer annealed to the homology arm. […] Library quality was assessed by Agilent Tapestation (Agilent Technologies). […]
# BAR-Seq data were processed with TagDust57 (v.2.33) to identify and extract the BAR from each sample by taking advantage of the structural composition of the reads. […] BAR abundance was quantified by summing the number of identical sequences. […] BARs with a read count lower than three were discarded and the remaining set of BARs were identified as the valid BARs of this sample. […]
# human CD34+ HSPCs [5] = experiment: Senescence markers in HSPCs ex vivo (p16); assay type: cell-based; details: mPB-derived HSPCs, 24 h and 96 h upon GE
# human CD34+ HSPCs [6] = experiment: Culture composition of HSPC subpopulations (flow cytometry); assay type: cell-based
# IL1A, IL8, IL6, CCL2 = experiment: Inflammatory cytokine expression in edited HSPCs (qPCR); assay type: cell-based, human; details: CB HSPCs, HS/AAV6; inhibitor at time of GE vs standard protocol
# human CD34+ HSPCs [7] = experiment: Apoptosis analysis of HSPCs (Annexin V, 7AAD); assay type: cell-based; details: HSPCs edited with COMBO, 24 h upon GE
substance,measurement,setting,value
Anakinra: recombinant and slightly modified form of the Human interleukin-1 receptor antagonist (IL-1Ra); SEQ ID NO: 3,Percentage of HDR-edited alleles (ddPCR),"human CD34+ HSPCs [1]; CB HSPCs, AAVS1 editing (HS/AAV6), inhibitor at time of GE (Anakinra 50 ng/μl, SC514 25 μM, GSE56 mRNA, ATMi) vs standard protocol",equal percentage of HDR-edited alleles; also recorded: did not affect HSPC ability to repair via HDR
same,Percentage of GFP+ cells within HSPC subpopulations (GE efficiency),"human CD34+ HSPCs [1]; CB HSPCs, HS/AAV6, inhibitor at time of GE vs standard protocol",maintained the efficiency of GE across all HSPC subpopulations; also recorded: no significant differences in GE efficiency in all HSPC subpopulations
same,HSPC ability to repair via HDR (GFP+ cells),human CD34+ HSPCs [1]; HSPCs edited with COMBO,without impairing HSPC ability to repair via HDR
same,HDR ability / percentage of GFP+ cells in HSPC subpopulations,"human CD34+ HSPCs [1]; mPB-derived HSPCs, AAVS1, inhibitor within 15 minutes upon GE",did not affect HSPC ability to repair via HDR
same,Number of colonies (HSPC clonogenic potential),"human CD34+ HSPCs [2]; CB HSPCs, HS/AAV6, inhibitor at time of GE vs standard protocol, 24 h and 96 h post GE",significant increase in HSPC clonogenic potential; also recorded: strongly improved HSPC clonogenic potential in vitro; also recorded: strongly improved HSPC clonogenic potential ex-vivo
same,Clonogenic potential (number of colonies),"human CD34+ HSPCs [2]; HSPCs edited with COMBO, 24 and 96 h",increase in the clonogenic potential of the cells
same,Clonogenic potential of edited cells,"human CD34+ HSPCs [2]; mPB-derived HSPCs, 24 and 96 h post GE",significantly improved the clonogenic potential of edited cells
same,Number of colonies formed by BM-derived CD34+ cells,[3],higher clonogenic potential
same,Percentage of human edited (GFP+) cells in peripheral blood,edited human CD34+ HSPCs; HS/AAV6 ± Anakinra,higher and stable percentage of GFP+ cells; also recorded: reproducible higher and stable levels of HDR-edited cells
same,"Percentage of GFP+ cells in BM human graft, HSPC, B and myeloid lineages","edited human CD34+ HSPCs; endpoint, HS/AAV6 ± Anakinra",improved long-term reconstitution
same,Percentage of human HDR-edited cells in bone marrow,"edited human CD34+ HSPCs; mPB HSPCs, 15 weeks",trend of higher levels of HDR-edited cells
same,Percentage of human CD45+ cells in bone marrow,"edited human CD34+ HSPCs; mPB HSPCs, matching low doses, 15 weeks",comparable human engraftment independently of Anakinra treatment
same,Percentage of human CD45+ cells in peripheral blood (plateau of circulating cells),"edited human CD34+ HSPCs; saturating cell doses, HS/AAV6 ± Anakinra",35-40%
same,Relative expression of CDKN1A (p21),CDKN1A (p21),upregulated upon GE compared to negative controls independently from Anakinra treatment
same,Number of dominant unique BARs in human BM-derived cells (polyclonal reconstitution),[4],higher long-term polyclonal reconstitution
same,Percentage of p16+ senescent cells in GFP+ HDR-edited cells,human CD34+ HSPCs [5],partially mitigated by Anakinra treatment
same,Culture composition of HSPC subpopulations,"human CD34+ HSPCs [6]; CB HSPCs, 24 h and 96 h post gene editing ± Anakinra",No treatment skewed culture composition over time
same,Culture composition skewing,"human CD34+ HSPCs [6]; HSPCs edited with COMBO, 24 h and 96 h",without overt apoptosis (FIG. 17I) and culture composition skewing
same,HSPC culture composition and differentiation,human CD34+ HSPCs [6]; mPB-derived HSPCs ± Anakinra,did not alter HSPC culture composition and differentiation
same,"Relative expression of inflammatory cytokine genes (IL1A, IL8, IL6, CCL2)","IL1A, IL8, IL6, CCL2",downregulated 96 h upon Anakinra treatment
same,Apoptosis,human CD34+ HSPCs [7],without overt apoptosis
